According to US4087534A, “N-haloalkylmio urazole pesticides” (priority 1974, dated 1978):

Tested on: Penicillium Chrysogenom
Assay: Modified Agar plate method, fungicidal activity against Penicillium spores (number of colonies)
Format: cell-based
Details: Treatment II: 1 ml solution of Captan in water at 200 ppm

## O=C1C2CC=CCC2C(=O)N1SC(Cl)(Cl)Cl (stereo not shown) [CAPTAN, Captan]
  inhibition (observation of number of colonies): total inhibition
